The results in this text go back to patent US5256782A, “Thienopyridine derivatives which are intermediates” (Takeda Chemical Industries, Ltd., priority 1990, dated 1993).

For one assay, the target named is T1, acyl-CoA: cholesterol acyltransferase (ACAT) (Rattus norvegicus, UniProt Q7TQM4).
T1 construct: microsome fraction of the tunica mucosa intestini tenuis; from tissue; host or cells: microsome fraction of small-intestinal mucosa, Sprague-Dawley male rat (six weeks old, fasted 20 hours)
T1 sequence (Q7TQM4 1-524): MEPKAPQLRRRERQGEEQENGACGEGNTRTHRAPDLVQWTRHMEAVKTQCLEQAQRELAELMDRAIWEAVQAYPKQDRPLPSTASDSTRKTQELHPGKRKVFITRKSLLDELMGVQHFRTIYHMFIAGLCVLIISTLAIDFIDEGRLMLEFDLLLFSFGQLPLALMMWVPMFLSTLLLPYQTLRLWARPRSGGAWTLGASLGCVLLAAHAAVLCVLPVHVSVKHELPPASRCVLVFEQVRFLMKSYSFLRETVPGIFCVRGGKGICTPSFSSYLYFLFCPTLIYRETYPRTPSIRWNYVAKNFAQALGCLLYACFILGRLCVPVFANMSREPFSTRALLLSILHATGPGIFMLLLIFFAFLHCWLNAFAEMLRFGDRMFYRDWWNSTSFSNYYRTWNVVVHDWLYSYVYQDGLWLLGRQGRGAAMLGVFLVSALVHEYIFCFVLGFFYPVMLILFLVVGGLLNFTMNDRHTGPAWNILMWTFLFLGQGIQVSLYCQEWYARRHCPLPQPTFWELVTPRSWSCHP
Description: ACAT inhibitory activity (labeled cholesterol ester formation from [1-14C]oleoyl-CoA and endogenous cholesterol; microsome fraction of rat tunica mucosa intestini tenuis). Format: biochemical, Spregue-Dawley male rat. To be noted: 10^-6 M; read-out: ACAT inhibitory rate (labeled cholesterol ester formation inhibitory rate). The procedure:
An enzyme specimen ACAT was prepared from a microsome fraction of the tunica mucosa intestini tenuis of Spregue-Dawley male rat (six week old) which had been subjected to fasting for 20 hours according to the method described in Journal of Lipid Research, 24, 1127 (1982).
ACAT activity was calculated by measuring an amount of a labeled cholesterol ester formed from [1-^14 C]oleoyl-CoA and endogenous cholesterol according to the process of Helgerud et al. [Journal of Lipid Research, 22, 271 (1981)].
ACTA inhibitory activity of compounds tested are shown in Table 1 by a labeled cholesterol ester formation inhibitory rate (%) obtained by addition of the test compounds in an amount of 10^-6 M.
For `CCc1cc2c(-c3ccccc3Cl)c(NC(=O)Nc3ccc(F)cc3F)cnc2s1` [Example 1, N-[4-(2-chlorophenyl)-2-ethylthieno[2,3-b]pyridin-5-yl]-N'-(2,4-difluorophenyl)urea], the inhibition at 1 µM was 98.7%.
Turning to `CCc1cc2c(-c3ccccc3Cl)c(NC(=O)C=Cc3cc(OC)c(OC(C)=O)c(OC)c3)cnc2s1` [Example 2, 5-(4-Acetoxy-3,5-dimethoxycinnamoylamino)-4-(2-chlorophenyl)-2-ethylthieno[2,3-b]pyridine], the inhibition at 1 µM is 74.3%.
Same read-out and setting: the figure for `CCc1cc2c(-c3ccccc3Cl)c(NC(=O)Nc3ccc(F)cc3F)c(=O)n(C)c2s1` [Example 3, N-[4-(2-chlorophenyl)-6,7-dihydro-2-ethyl-7-methyl-6-oxothieno[2,3-b]pyridin-5-yl]-N'-(2,4-difluorophenyl)urea] is 99.6%.
On the same count and under the same terms, the same measure for `CCc1cc2c(-c3ccccc3Cl)c(NC(=O)Nc3ccc(Cl)cc3)cnc2s1` [Example 4, N-(4-chlorophenyl)-N'-[4-(2-chlorophenyl)-2-ethylthieno[2,3-b]pyridin-5-yl]urea]: 93.6%; for `Cc1sc2ncc(NC(=O)Nc3ccc(F)cc3F)c(-c3ccccc3Cl)c2c1C` [Example 5, N-[4-(2-chlorophenyl)-2,3-dimethylthieno[2,3-b]pyridin-5-yl]-N'-(2,4-difluorophenyl)urea]: 93.9%; for `O=C(Nc1ccc(F)cc1F)Nc1cnc2sc3c(c2c1-c1ccccc1Cl)CCC3` [Example 6, N-[4-(2-chlorophenyl)-6,7-dihydro-5H-cyclopenta[1',2':5,4]thieno[2,3-b]pyridin-3-yl]-N'-(2,4-difluorophenyl)urea]: 96.3%.
The same measure, in the same setting: the figure for `O=C(Nc1cnc2sc3c(c2c1-c1ccccc1Cl)CCC3)c1ccc(F)cc1F` [Example 7, 4-(2-chlorophenyl)-3-(2,4-difluorobenzoylamino)-6,7-dihydro-5H-cyclopenta[1',2':5,4]thieno[2,3-b]pyridine] is 34.4%; for `O=C(Cc1ccc(F)cc1F)Nc1cnc2sc3c(c2c1-c1ccccc1Cl)CCC3` [Example 8, 4-(2-chlorophenyl)-3-(2,4-difluorophenylacetylamino)-6,7-dihydro-5H-cyclopenta-[1',2':5,4]thieno-[2,3-b]pyridine] it is 94.4%; for `Cc1ccccc1-c1c(NC(=O)Nc2ccc(F)cc2F)cnc2sccc12` [Example 9, N-(2,4-difluorophenyl)-N'-[4-(2-methylphenyl)-thieno[2,3-b]pyridin-5-yl]urea] it is 60.2%.
Regarding `Cc1cc2c(-c3ccccc3Cl)c(NC(=O)Nc3ccc(F)cc3F)cnc2s1` [Example 10, N-[4-(2-chlorophenyl)-2-methylthieno[2,3-b]pyridin-5-yl]-N'-(2,4-difluorophenyl)urea], the inhibition at 1 µM was determined as 95.1%.
Same read-out and setting: the figure for `Cc1ccccc1-c1c(NC(=O)Nc2ccc(F)cc2F)cnc2sc(Cl)cc12` [Example 11, N-[2-chloro-4-(2-methylphenyl)thieno[2,3-b]pyridin-5-yl]-N'-[2,4-difluorophenyl)urea] is 94.5%.
The same measure, in the same setting: the same measure for `CCc1cc2c(-c3ccccc3OC)c(NC(=O)Nc3cc(C)c(OC(C)=O)c(C)c3)cnc2s1` [Example 13, N-(4-acetoxy-3,5-dimethylphenyl)-N'-[2-ethyl-4-(2-methoxyphenyl)thieno[2,3-b]pyridin-5-yl]urea]: 97.5%.
Still for that read-out and setting: the same measure for `CCc1cc2c(-c3ccccc3OC)c(NC(=O)Nc3cc(OC)c(OC(C)=O)c(OC)c3)cnc2s1` [Example 14, N-(4-acetoxy-3,5-dimethoxyphenyl)-N'-[2-ethyl-4-(2-methoxyphenyl)thieno[2,3-b]pyridin-5-yl]urea]: 91.9%.

Another assay has as its target T1, acyl-CoA: cholesterol acyltransferase (ACAT). The description is as above. Format: biochemical, Spregue-Dawley male rat. To be noted: 0.5 × 10^-6 M; read-out: ACAT inhibitory rate (labeled cholesterol ester formation inhibitory rate).
Turning to `O=C(Nc1ccc(F)cc1F)Nc1cnc2sc3c(c2c1-c1ccccc1Cl)CCCC3` [Example 12, N-[4-(2-chlorophenyl)-5,6,7,8-tetrahydro[1]-benzothieno[2,3-b]pyridin-3-yl]-N'-(2,4-difluorophenyl)urea], the inhibition at 0.5 µM is 82.3%.
